Assay results reported in article PMC8920929 (The Journal of Biological Chemistry, 2022).
Residue numbers refer to the chain shown, from its start.

Assays:
Format in all cases: cell-based
TRPV3-I505A = target: T1, TRPV3-I505A (Homo sapiens, UniProt Q8NET8, I505A); test: Whole-cell and single-channel recordings of the TRPV3-I505A mutant
T1 sequence (Q8NET8 1-790 I505A): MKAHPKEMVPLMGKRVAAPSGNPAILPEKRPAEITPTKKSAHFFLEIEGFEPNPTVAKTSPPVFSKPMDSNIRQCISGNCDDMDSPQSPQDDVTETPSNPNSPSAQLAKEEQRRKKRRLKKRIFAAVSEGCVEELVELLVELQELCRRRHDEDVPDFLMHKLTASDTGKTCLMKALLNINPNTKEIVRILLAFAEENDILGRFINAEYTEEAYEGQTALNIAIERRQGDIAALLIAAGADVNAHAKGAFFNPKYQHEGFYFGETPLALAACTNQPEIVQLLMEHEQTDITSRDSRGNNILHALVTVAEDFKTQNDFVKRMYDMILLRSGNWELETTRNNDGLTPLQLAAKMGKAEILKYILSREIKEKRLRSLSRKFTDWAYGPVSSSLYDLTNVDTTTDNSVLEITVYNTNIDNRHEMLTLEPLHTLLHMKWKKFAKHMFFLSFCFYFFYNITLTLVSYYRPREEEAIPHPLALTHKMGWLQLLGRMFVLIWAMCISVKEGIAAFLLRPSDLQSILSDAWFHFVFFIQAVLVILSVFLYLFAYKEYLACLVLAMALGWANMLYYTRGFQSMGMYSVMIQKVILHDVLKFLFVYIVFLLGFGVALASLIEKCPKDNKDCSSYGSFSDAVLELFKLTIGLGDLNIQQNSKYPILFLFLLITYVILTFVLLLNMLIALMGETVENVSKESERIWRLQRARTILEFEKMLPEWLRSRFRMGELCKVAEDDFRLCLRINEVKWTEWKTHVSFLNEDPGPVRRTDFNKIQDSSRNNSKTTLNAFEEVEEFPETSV

TRPV3-D512A = target: T2, TRPV3-D512A (Homo sapiens, UniProt Q8NET8, D512A); test: Whole-cell and single-channel recordings of the TRPV3-D512A mutant
T2 sequence (Q8NET8 1-790 D512A): T1 sequence (Q8NET8 1-790 I505A) with A505I, D512A

TRPV3-L508F = target: T3, TRPV3-L508F (Homo sapiens, UniProt Q8NET8, L508F); test: Whole-cell and single-channel recordings of the TRPV3-L508F mutant; conditions: carvacrol 0.3-3.0 mM or 50 μM 2-APB
T3 sequence (Q8NET8 1-790 L508F): T1 sequence (Q8NET8 1-790 I505A) with A505I, L508F

Compound: Cc1ccc(C(C)C)cc1O [carvacrol, 5-Isopropyl-2-methylphenol]
- EC50 (TRPV3-I505A): 3.51 ± 0.44 mM
- right shift of channel activation versus WT TRPV3 (TRPV3-I505A; I505A versus WT): over 10 fold
- activation of TRPV3 I505A mutant channel (TRPV3-I505A; carvacrol 0.3-3.0 mM or 50 μM 2-APB): weak activation of TRPV3 I505A at high concentration of 3 mM
- EC50 (TRPV3-D512A): 3.21 ± 0.48 mM
- right shift of channel activation versus WT TRPV3 (TRPV3-D512A; D512A versus WT): over 10 fold
- sensitivity of TRPV3 D512A mutant channel (TRPV3-D512A; carvacrol 0.3-3.0 mM): decreased the sensitivity
- activation of TRPV3 L508F mutant channel (TRPV3-L508F): ablated TRPV3 activation
